Experimental data reported in patent US20240207242A1, “PHARMACEUTICAL COMPOSITION COMPRISING SPHINGOSINE-1-PHOSPHATE RECEPTOR AGONIST WITH CONTROLLED PARTICLE SIZE” (LG CHEM, LTD., priority 2021, published 2024).
Counter-ions that a name gives are not always drawn.

Test: Pharmacokinetic property (plasma concentration), crossover, tablets (FIG. 3)
Type: in vivo
Conditions: male beagle dogs, tablets with Samples 5 to 7
Experimental: A crossover design of taking all three tablets (active ingredients having a particle size of Samples 5 to 7) was applied to this experimentation, and the three tablets were administered to male beagle dogs once each with a 14-day wash-out period. Each dose was taken with 50 mL of water while maintaining the fasted state for at least 14 hours. The results are represented in FIG. 3.

particle size d(0.9) based on Cmax to show bioequivalence in terms of pharmacokinetics: ≤ 60 μm
Compound: CC(C)n1nc(Cl)c2cc(COc3ccc4c(c3)CCC(CN3CCC(C(=O)O)CC3)=C4Cl)ccc21 [API, 1-[1-chloro-6-(3-chloro-1-isopropyl-1H-indazol-5-ylmethoxy)-3,4-dihydro-naphthalen-2-ylmethyl]-piperidine-4-carboxylic acid hydrochloride]
